Values of other authors, collected in patent US20100086495A1, “COMPOSITIONS AND METHODS FOR ENHANCING TRANSMUCOSAL DELIVERY” (DERMA-YOUNG LTD., priority 2007, published 2010).

Settings: vitamin B12 deficient subjects

vitamin B12
increase in serum concentration levels of the vitamin, sublingual versus conventional oral vitamin B12: same extent of increase
